Data taken from US7332608B2, “Anthranilamides and methods of their use” (SANOFI-AVENTIS Deutschland GmbH, priority 2001, dated 2008).

These molecules were tested against T1, Human Kv1.5 channels (Homo sapiens, UniProt P22460) (assay: Kv1.5 currents in Xenopus oocytes, two-microelectrode voltage clamp). Conditions: human Kv1.5 expressed in Xenopus laevis oocytes; voltage jumps 500 ms to 0 mV and 40 mV; room temperature; Hill equation.
T1 construct: expressed in transfected cells; host or cells: Xenopus laevis oocytes injected with in vitro synthesized Kv1.5-encoding RNA
T1 sequence (P22460 whole entry): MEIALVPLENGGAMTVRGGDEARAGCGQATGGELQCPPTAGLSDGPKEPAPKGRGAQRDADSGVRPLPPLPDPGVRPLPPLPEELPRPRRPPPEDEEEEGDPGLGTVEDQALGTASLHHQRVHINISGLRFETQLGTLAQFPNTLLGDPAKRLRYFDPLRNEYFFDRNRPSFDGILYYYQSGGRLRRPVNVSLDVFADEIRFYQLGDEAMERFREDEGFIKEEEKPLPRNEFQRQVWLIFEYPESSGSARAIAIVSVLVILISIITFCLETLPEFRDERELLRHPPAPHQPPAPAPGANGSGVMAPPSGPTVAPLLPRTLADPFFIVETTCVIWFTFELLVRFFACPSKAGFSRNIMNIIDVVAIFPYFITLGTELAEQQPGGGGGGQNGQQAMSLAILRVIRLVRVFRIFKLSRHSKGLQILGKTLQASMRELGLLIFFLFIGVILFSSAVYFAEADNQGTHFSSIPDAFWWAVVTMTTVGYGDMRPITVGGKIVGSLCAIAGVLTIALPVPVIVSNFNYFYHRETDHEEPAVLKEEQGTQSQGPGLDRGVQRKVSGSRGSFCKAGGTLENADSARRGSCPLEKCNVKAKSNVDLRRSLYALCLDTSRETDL
Type: cell-based
Procedure: Human Kv1.5 channels were expressed in Xenopus oocytes. For this purpose, firstly ooytes were isolated from Xenopus laevis and were defolliculated. Kv1.5-encoding RNA which had been synthesized in vitro was then injected into these oocytes. After 1-7 days of Kv1.5 protein expression, the Kv1.5 currents were measured on the oocytes by the two-microelectrode voltage clamp technique. The Kv1.5 channels were for this purpose usually activated with voltage jumps lasting 500 ms to 0 mV and 40 mV. A solution of the following composition flowed through the bath: NaCl 96 mM, KCl 2 mM, CaCl2 1.8 mM, MgCl2 1 mM, HEPES 5 mM (titrated to pH 7.4 with NaOH). These experiments were carried out at room temperature. The following were employed for data acquisition and analysis: geneclamp amplifier (Axon Instruments, Foster City, USA) and MacLab D/A converter and software (ADInstruments, Castle Hill, Australia). The compounds of the invention were tested by adding them in various concentrations to the bath solution. The effects of the compounds were calculated as percentage inhibition of the Kv1.5 control current which was obtained when no compound was added to the solution. The data were then extrapolated using the Hill equation in order to determine the inhibitory concentrations IC50 for the respective compounds.
`CC[C@H](NC(=O)c1ccccc1NS(=O)(=O)c1cccc(OC)c1)c1ccccc1` [Example 63] was tested, and the IC50 was 1700 nM.
Molecule `COc1ccc(NS(=O)(=O)c2ccc(C)cc2)c(C(=O)NC(c2cccnc2)C2CC2)c1` (stereo not drawn) [Example 131] has an IC50 of 700 nM.
Molecule `Cc1ccc(S(=O)(=O)Nc2ccccc2C(=O)N(Cc2ccccc2)Cc2nn(C)cc2Cl)cc1` [Example 89] has an IC50 of 3200 nM.
For `CCCCS(=O)(=O)Nc1ccc(C)cc1C(=O)NC(CC)c1cccnc1` (stereo not drawn) [Example 144], the IC50 was 2800 nM.
`Cc1ccc(S(=O)(=O)Nc2ccccc2C(=O)N(Cc2ccccc2)CC2CCCO2)cc1` (stereo not drawn) [Example 116] gave an IC50 of 1100 nM.
With `Cc1ccc(S(=O)(=O)Nc2ccccc2C(=O)N(Cc2cccc(C)n2)CC2CC2)cc1` [Example 113] the IC50 was 2600 nM.
`CCN(C(=O)c1cc(F)ccc1NS(=O)(=O)c1ccc(C)cc1)C1CCCCC1` [Example 15] showed an IC50 of 7800 nM.
In the case of `Cc1ccc(S(=O)(=O)Nc2ccccc2C(=O)N(Cc2ccccc2)CC2CCCCC2)cc1` [Example 31], the IC50 is reported as 2600 nM.
With `CCCC(NC(=O)c1cc(OC)ccc1NS(=O)(=O)c1ccc(C)cc1)c1ccccc1` (stereo not drawn) [Example 92] the IC50 was 900 nM.
`O=C(NC(c1ccccc1)C1CC1)c1ccccc1NS(=O)(=O)c1ccccc1` (stereo not drawn) [Example 94] gave an IC50 of 1000 nM.
Work on `Cc1cccc(NS(=O)(=O)c2ccc(Cl)cc2)c1C(=O)NC1CCCCC1` [Example 22] yielded an IC50 of 4800 nM.
`CCCCS(=O)(=O)Nc1ccccc1C(=O)N(Cc1ccccc1)Cc1cccnc1` [Example 71] was tested, and the IC50 was 6900 nM.
Molecule `Cc1ccc(S(=O)(=O)Nc2ccccc2C(=O)N(Cc2ccc(F)cc2)Cc2cccc(C)n2)cc1` [Example 117] has an IC50 of 2400 nM.
`COc1ccc(NS(=O)(=O)c2ccc(C)cc2)c(C(=O)N(Cc2ccccc2)Cc2nccn2C)c1` [Example 41] gave an IC50 of 1900 nM.
`COc1ccc(NS(=O)(=O)c2ccc(C)cc2)c(C(=O)N[C@@H](C)C2CCCCC2)c1` [Example 95] was tested, and the IC50 was 700 nM.
With `Cc1cccc(S(=O)(=O)Nc2ccccc2C(=O)N(Cc2ccccc2)Cc2cccnc2)c1` [Example 75] the IC50 was 2900 nM.
Work on `Cc1ccc(S(=O)(=O)Nc2ccccc2C(=O)N(Cc2ccncc2)CC2CC2)cc1` [Example 48] yielded an IC50 greater than 10000 nM.
Work on `Cc1ccc(S(=O)(=O)Nc2ccccc2C(=O)N(Cc2ccccc2)Cc2cccn2C)cc1` [Example 83] yielded an IC50 of 1900 nM.
`Cc1ccc(S(=O)(=O)Nc2ccccc2C(=O)N(Cc2ccccc2)Cc2ccc(C)o2)cc1` [Example 36] gave an IC50 of 2000 nM.
In the case of `CCc1nc(C)c(CN(Cc2ccccc2)C(=O)c2ccccc2NS(=O)(=O)c2ccc(C)cc2)[nH]1` [Example 88], the IC50 is reported as 3900 nM.
For `Cc1ccc(S(=O)(=O)Nc2ccccc2C(=O)N(Cc2cccnc2)CC2CC2)cc1` [Example 34], the IC50 was 3100 nM.
In the case of `C[C@@H](c1ccccc1)N(C)C(=O)c1ccccc1NS(=O)(=O)c1ccccc1` [Example 98], the IC50 is reported as 2000 nM.
`CC[C@H](NC(=O)c1ccccc1NS(=O)(=O)c1ccc(OC(F)(F)F)cc1)c1ccccc1` [Example 67] was tested, and the IC50 was 5800 nM.
Work on `CC[C@@H](NC(=O)c1cc(Cl)ccc1NS(=O)(=O)c1ccccc1)c1ccccc1` [Example 4, (R)-2-Phenylsulfonylamino-5-chloro-N-(1-phenylpropyl)benzamide] yielded an IC50 of 4100 nM.
With `COc1ccc([C@@H](C)NC(=O)c2cc(Cl)ccc2NS(=O)(=O)c2ccccc2)cc1` [Example 6] the IC50 was 8200 nM.
Molecule `Cc1ccc(S(=O)(=O)Nc2ccc(F)cc2C(=O)N(Cc2ccccc2)Cc2nccn2C)cc1` [Example 81] has an IC50 of 400 nM.
Molecule `Cc1ccc(S(=O)(=O)Nc2ccccc2C(=O)N(Cc2ccccc2)CC2CC2)cc1` [Example 37] has an IC50 of 1900 nM.
Molecule `Cc1ccc(S(=O)(=O)Nc2ccc(F)cc2C(=O)N(Cc2ccccc2)Cc2cccc(C)n2)cc1` [Example 101] has an IC50 of 900 nM.
For `Cc1ccc(S(=O)(=O)Nc2ccc(F)cc2C(=O)NC2CCCCC2)cc1` [Example 14], the IC50 was 8500 nM.
`Cc1ccc(S(=O)(=O)Nc2ccc(C)cc2C(=O)NC(c2ccccn2)C2CC2)cc1` (stereo not drawn) [Example 126] gave an IC50 of 600 nM.
`Cc1ccc(S(=O)(=O)Nc2ccc(F)cc2C(=O)N(Cc2ccccc2)Cc2nccs2)cc1` [Example 110] was tested, and the IC50 was 1000 nM.
`CCCCS(=O)(=O)Nc1ccc(C)cc1C(=O)NC(c1ccccn1)C1CC1` (stereo not drawn) [Example 125] gave an IC50 of 1800 nM.
`CC[C@H](NC(=O)c1cc(O)ccc1NS(=O)(=O)c1ccc(C)cc1)c1ccccc1` [Example 152, 5-Hydroxy-N-(1-phenylpropyl)-2-(toluene-4-sulfonylamino)benzamide] gave an IC50 of 2600 nM.
Molecule `Cc1ccc(S(=O)(=O)Nc2ccccc2C(=O)N(Cc2ccccc2)Cc2nc3ccccc3[nH]2)cc1` [Example 35] has an IC50 of 2000 nM.
Work on `CCC(Cc1ccccc1)NC(=O)c1cc(OC)ccc1NS(=O)(=O)c1ccc(C)cc1` (stereo not drawn) [Example 51] yielded an IC50 of 3600 nM.
Molecule `CCC(Cc1ccccn1)NC(=O)c1cc(OC)ccc1NS(=O)(=O)c1ccc(C)cc1` (stereo not drawn) [Example 142] has an IC50 of 700 nM.
`CC[C@H](NC(=O)c1cc(F)ccc1NS(=O)(=O)c1ccc(Cl)cc1)c1ccccc1` [Example 106] gave an IC50 of 3800 nM.
`CC[C@H](NC(=O)c1cc(OC)ccc1NS(=O)(=O)c1ccc(C)cc1)c1ccccc1` [Example 90] showed an IC50 of 500 nM.
In the case of `CC[C@H](NC(=O)c1cc(F)ccc1NS(=O)(=O)c1ccc(C)cc1)c1ccccc1` [Example 115], the IC50 is reported as 2400 nM.
`CCC(NC(=O)c1cc(OC)ccc1NS(=O)(=O)c1ccc(C)cc1)c1ccccc1` (stereo not drawn) [Example 26] was tested, and the IC50 was 600 nM.
For `CCC(NC(=O)c1cc(C)ccc1NS(=O)(=O)C1CC1)c1ccc(C)o1` (stereo not drawn) [Example 146], the IC50 was 2500 nM.
With `Cc1ccc(S(=O)(=O)Nc2ccccc2C(=O)N(CCc2cccnc2)CC2CC2)cc1` [Example 49] the IC50 was 6300 nM.
`COc1ccc(NS(=O)(=O)c2cccc(C(F)(F)F)c2)c(C(=O)N(Cc2ccccc2)Cc2nccn2C)c1` [Example 43] gave an IC50 of 5400 nM.
Molecule `COc1ccc(NS(=O)(=O)c2ccc(C)cc2)c(C(=O)NC(c2ccccn2)C2CC2)c1` (stereo not drawn) [Example 124] has an IC50 of 1000 nM.
Work on `Cc1ccc(S(=O)(=O)Nc2ccccc2C(=O)N(CCCn2ccnc2C)Cc2ccccc2)cc1` [Example 39] yielded an IC50 greater than 10000 nM.
Work on `CC[C@H](NC(=O)c1ccccc1NS(=O)(=O)c1ccccc1)c1ccccc1` [Example 69] yielded an IC50 of 1300 nM.
`CC[C@H](NC(=O)c1ccccc1NS(=O)(=O)c1ccc(C)cc1)c1ccccc1` [Example 60] was tested, and the IC50 was 700 nM.
`Cc1ccc(S(=O)(=O)Nc2ccc(F)cc2C(=O)N(Cc2ccccc2)Cc2cccnc2)cc1` [Example 46] showed an IC50 of 1200 nM.
`CC[C@@H](NC(=O)c1cc(OC)ccc1NS(=O)(=O)c1ccc(C)cc1)c1ccccc1` [Example 99] gave an IC50 of 900 nM.
In the case of `COc1ccc([C@H](C)NC(=O)c2cc(OC)ccc2NS(=O)(=O)c2ccc(C)cc2)cc1` [Example 97], the IC50 is reported as 900 nM.
Work on `CCC(Cc1ccccc1)NC(=O)c1ccccc1NS(=O)(=O)c1ccccc1` (stereo not drawn) [Example 52] yielded an IC50 of 3000 nM.
For `Cc1ccc(S(=O)(=O)Nc2ccccc2C(=O)N(Cc2ccccc2)Cc2ccco2)cc1` [Example 38], the IC50 was 1600 nM.
For `Cc1ccc(S(=O)(=O)Nc2ccccc2C(=O)N(Cc2nccs2)CC2CCCCC2)cc1` [Example 119], the IC50 was 2700 nM.
`CCCCS(=O)(=O)Nc1ccccc1C(=O)N(Cc1cccnc1)Cc1cccc(C)n1` [Example 123] gave an IC50 of 2900 nM.
`CCCCS(=O)(=O)Nc1cc(C)ccc1C(=O)NC1CCCCC1` [Example 20] showed an IC50 of 7700 nM.
Molecule `Cc1ccc(S(=O)(=O)Nc2ccccc2C(=O)N(Cc2ccccc2)Cc2ccc[nH]2)cc1` [Example 86] has an IC50 of 1800 nM.
`CC[C@H](NC(=O)c1ccccc1NS(=O)(=O)c1ccc(Cl)cc1)c1ccccc1` [Example 68] showed an IC50 of 2900 nM.
`CCC(c1ccccc1)N(C)C(=O)c1ccccc1NS(=O)(=O)c1ccccc1` (stereo not drawn) [Example 130] was tested, and the IC50 was 700 nM.
With `CC[C@H](NC(=O)c1ccccc1NS(=O)(=O)c1cccc2c(N(C)C)cccc12)c1ccccc1` [Example 65] the IC50 was 4800 nM.
For `CCN(C(=O)c1ccccc1NS(=O)(=O)c1ccc(C)cc1)C1CCCCC1` [Example 12], the IC50 was 5400 nM.
For `Cc1ccc(S(=O)(=O)Nc2ccccc2C(=O)N(Cc2ccccc2)Cc2nccs2)cc1` [Example 84], the IC50 was 1000 nM.
`CCC(NC(=O)c1c(C)cccc1NS(=O)(=O)c1ccc(Cl)cc1)c1ccccc1` (stereo not drawn) [Example 24] was tested, and the IC50 was 3000 nM.
`CCc1ccc(S(=O)(=O)Nc2ccccc2C(=O)N[C@@H](CC)c2ccccc2)cc1` [Example 77] gave an IC50 of 2600 nM.
With `Cc1ccc(S(=O)(=O)Nc2ccccc2C(=O)N(Cc2cnc3ccccc3c2)CC2CC2)cc1` [Example 87] the IC50 was 6000 nM.
For `CCCCS(=O)(=O)Nc1ccc(C)cc1C(=O)NC(CC)Cc1cccnc1` (stereo not drawn) [Example 138], the IC50 was 1800 nM.
`CCCCS(=O)(=O)Nc1ccc(C)cc1C(=O)N[C@H](CC)c1ccccc1` [Example 114] was tested, and the IC50 was 1400 nM.
In the case of `CC[C@H](NC(=O)c1ccccc1NS(=O)(=O)c1ccc(OC)cc1)c1ccccc1` [Example 64], the IC50 is reported as 600 nM.
Molecule `COc1ccc(NS(=O)(=O)c2ccc(C)cc2OC)c(C(=O)NC2CCC(C)CC2)c1` (stereo not drawn) [Example 27] has an IC50 of 5600 nM.
In the case of `Cc1ccc(S(=O)(=O)Nc2ccc(Cl)cc2C(=O)N(Cc2ccccc2)Cc2cccnc2)cc1` [Example 45], the IC50 is reported as 2500 nM.
`CCC(NC(=O)c1cc(OC)ccc1NS(=O)(=O)c1ccc(C)cc1)c1ccc(OC)nc1` (stereo not drawn) [Example 139] was tested, and the IC50 was 1000 nM.
In the case of `COc1ccc(NS(=O)(=O)c2ccc(C)cc2)c(C(=O)NC(C)c2ccc(F)cc2)c1` (stereo not drawn) [Example 104], the IC50 is reported as 1000 nM.
For `CCCCS(=O)(=O)Nc1ccc(C)cc1C(=O)NC1CCCCC1` [Example 54, 2-(Butylsulfonylamino)-N-cyclohexyl-5-methylbenzamide], the IC50 was 4000 nM.
